Several values for one entry are separate records, joined by “and”; a condition that tells them apart may be missing. Identical values can stand only once.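 These data come from cells grown in 96-well plates and exposed to compound for 48 hours at five concentrations. The concentration for 50% growth inhibition is given as GI50. Definition used: TGI = concentration required for complete inhibition of growth.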
What was measured:
Test in all cases: NCI anticancer screen, dose series, 48 h
LXFL 529 NSCLC = tested on: LXFL 529 NSCLC
HOP-18 NSCLC = tested on: HOP-18 NSCLC
DMS 273 small cell lung = tested on: DMS 273 small cell lung
KM20L2 colon = tested on: KM20L2 colon
MDA-MB-435 = tested on: MDA-MB-435
NCI/ADR-RES ovarian = tested on: NCI/ADR-RES ovarian
PC-3 prostate = tested on: PC-3 prostate
T-47D breast = tested on: T-47D breast
HS 578T breast = tested on: HS 578T breast
BT-549 breast = tested on: BT-549 breast

Row | SMILES | TGI (LXFL 529 NSCLC) [µM] | TGI (HOP-18 NSCLC) | TGI (DMS 273 small cell lung) | TGI (KM20L2 colon) | also measured
1 | COc1cccc(N2C(=O)c3c(c4[nH]c5ccccc5c4c4ccc(C(C)(C)C)cc34)C2=O)c1 | > 100 | > 100 µM | > 100 µM | > 100 µM | 
2 | O=C(Nc1ccc(Cl)c(C(F)(F)F)c1)C(=O)C(C(=O)/C=C/c1ccccc1)C1OC(=O)c2ccccc21 (configuration not stated) | > 100 | > 100 µM | > 100 µM | > 100 µM | 
3 | C/C(=N\N=C(N)N)C(CN(CC(C)C)CC(C)C)C(=O)Nc1ccc(C)cc1C (configuration not stated) | > 100 | > 100 µM | > 100 µM | > 100 µM | 
4 | COC(=O)C1(C)C=C(Nc2ccccc2)C(=O)N1c1ccccc1 (configuration not stated) | > 100 | > 100 µM |  |  | 
5 | O=C(O)c1ccc(NC(=O)C2C(=O)C(=O)N(c3ccc(C(=O)O)cc3)C2=O)cc1 (configuration not stated) |  |  | > 100 µM | > 100 µM | 
6 | COc1nc2c(OC)cccc2c(OC)c1C=O |  | > 100 µM | > 100 µM | > 100 µM | 
7 | O=C1C2C(C(=O)N1O)N(Cc1ccccc1)C(=O)N2Cc1ccccc1 (configuration not stated) | > 100 |  |  | > 100 µM | 
8 | Cc1[nH]c(=O)[nH]c(=O)c1N(CCF)CCCl |  | 927 µM and 2060 µM and 1190 µM | 330 µM and 470 µM and 560 µM | 455 µM and 1280 µM and 619 µM | TGI (MDA-MB-435): 876 µM; GI50 (HOP-18 NSCLC): 401 µM and 719 µM and 415 µM; GI50 (NCI/ADR-RES ovarian): 443 µM and 206 µM; TGI (NCI/ADR-RES ovarian): 820 µM and 1130 µM and 1090 µM; TGI (PC-3 prostate): 954 µM; TGI (T-47D breast): 1340 µM; GI50 (DMS 273 small cell lung): 113 µM and 122 µM and 189 µM; GI50 (KM20L2 colon): 194 µM and 429 µM; TGI (HS 578T breast): 1660 µM; TGI (BT-549 breast): 769 µM
9 | C=CC1(C)CCC(C(C)C(=O)C(C=C(C)C)OC(C)=O)C12C(=O)Oc1ccccc1C2=O (configuration not stated) | > 100 | > 100 µM | > 100 µM | > 100 µM | 
10 | CC(Cn1c2c3ccccc3ccc2c2oc(=O)c3ccccc3c21)N(C)C (configuration not stated) | > 100 |  |  | > 100 µM | 
11 | CC1=CC=NN2C(=O)[C@H](C)C2C1 (some centres not stated) | > 100 | > 100 µM | > 100 µM | > 100 µM | 
12 | COc1ccc(OCC(=O)O)c2c1CCC(C(C)C)C2=O (configuration not stated) | > 100 | > 100 µM | > 100 µM | > 100 µM | 
13 | CC(C)C(C(=O)O)N(CC1(O)OCC(O)C(O)C1O)N=O (configuration not stated) | > 100 |  | > 100 µM | > 100 µM | 
14 | CCCCCCCCCCCCCS(=O)(=O)O | > 100 | > 100 µM |  | > 100 µM | 
15 | CCN1C(=O)C/C(=C\C(C)=O)Nc2ccccc21 | > 100 |  | > 100 µM |  | GI50 (MDA-MB-435): > 100 µM; TGI (MDA-MB-435): > 100 µM; GI50 (NCI/ADR-RES ovarian): > 100 µM; TGI (NCI/ADR-RES ovarian): > 100 µM; GI50 (PC-3 prostate): > 100 µM; TGI (PC-3 prostate): > 100 µM; GI50 (T-47D breast): > 100 µM; TGI (T-47D breast): > 100 µM; GI50 (HS 578T breast): > 100 µM; TGI (HS 578T breast): > 100 µM; GI50 (BT-549 breast): > 100 µM; TGI (BT-549 breast): > 100 µM
16 | CN/N=C(/Cc1occc(=O)c1O)C(=O)Nc1ccc(C)c(C)c1 | > 100 |  |  | > 100 µM | 
17 | CCOC(=N)CC(=O)Nc1ccc(Cl)cc1 | > 100 |  | > 100 µM | > 100 µM | 
18 | C/C(=N\NC(=S)N1CCCCCC1)c1nccnc1C | > 100 | 76.8 µM | 11.4 µM | > 100 µM | 
19 | CC(C)(C)NNC(=O)/C(=C/c1ccc(Oc2ccc(Cl)c(Cl)c2)cc1)NC(=O)c1ccccc1 | > 100 | > 100 µM | 58.3 µM | > 100 µM | 
20 | O=P(c1ccccc1)(c1ccccc1)C1CC=C(c2ccccc2)C2(CCCC2)C1 (configuration not stated) | > 100 | 76.9 µM | > 100 µM | > 100 µM | 
21 | COc1ccc2[nH]cc(CCNC(C)=O)c2c1 | > 100 | > 100 µM | > 100 µM | > 100 µM | 
22 | CCCN1C(=O)C/C(=C\C(C)=O)Nc2ccccc21 | > 100 |  | > 100 µM |  | 
23 | O=C1NC(=O)C(C(=O)C(=O)Nc2ccc(Br)cc2)C(=O)N1 | > 100 | > 100 µM | > 100 µM | > 100 µM | 
24 | O=C(Cc1nc2ccccc2s1)C(=O)Nc1ccc(Cl)cc1 | > 100 | > 100 µM | > 100 µM | > 100 µM | 
25 | COC(=O)c1c[nH]cc1CCc1c[nH]cc1C(=O)OC | > 100 |  | > 100 µM | > 100 µM | 
26 | CSC(=S)c1ccc(C(=S)SC)cc1 | > 100 | > 100 µM | > 100 µM | > 100 µM | 
27 | COc1cc(Nc2cnc3cc(C(F)(F)F)ccc3n2)cc(OC)c1OC | > 100 | > 100 µM | > 100 µM | > 100 µM | 
28 | COc1ccc(C(=O)/C=C/c2ccc(O)c(O)c2F)c(OC)c1 |  |  |  |  | GI50 (MDA-MB-435): 2.51 µM; TGI (MDA-MB-435): 75 µM and 44.1 µM; GI50 (NCI/ADR-RES ovarian): 4.16 µM; TGI (NCI/ADR-RES ovarian): 67.7 µM and > 100 µM; GI50 (PC-3 prostate): 6.18 µM; TGI (PC-3 prostate): 17.7 µM and 24 µM; GI50 (T-47D breast): 3.21 µM; TGI (T-47D breast): 75 µM and > 100 µM; GI50 (HS 578T breast): 7.34 µM; TGI (HS 578T breast): 75 µM and > 100 µM; GI50 (BT-549 breast): 6.24 µM; TGI (BT-549 breast): 18 µM and 26.2 µM
29 | COC(=O)/C=C/c1cc(O)c2c(c1)C(C(=O)OC)C(c1ccc(O)c(O)c1)O2 (configuration not stated) |  |  |  |  | TGI (MDA-MB-435): 0.0513 µM; GI50 (NCI/ADR-RES ovarian): 0.11 µM and 0.0614 µM; TGI (NCI/ADR-RES ovarian): > 100 µM; GI50 (PC-3 prostate): 0.573 µM and 0.817 µM; TGI (PC-3 prostate): 69 µM and 65.8 µM; GI50 (T-47D breast): 1.55 µM; TGI (T-47D breast): 57.9 µM; GI50 (HS 578T breast): 0.468 µM and 0.0614 µM; TGI (HS 578T breast): > 100 µM; GI50 (BT-549 breast): 0.127 µM and 0.103 µM; TGI (BT-549 breast): 39.8 µM and 5.39 µM
30 | Cc1cc2c(cc1C)NC(=O)C(NC(=O)/C=C/c1ccccc1)C=N2 (configuration not stated) | > 100 | > 100 µM | > 100 µM | > 100 µM | 

— PubChem BioAssay (NCI)
